Experimental data: PMC4129416, “YLT192, a Novel, Orally Active Bioavailable Inhibitor of VEGFR2 Signaling with Potent Antiangiogenic Activity and Antitumor Efficacy in Preclinical Models” (Scientific Reports, 2014)

Key:
[1] = tested on: VEGFR2 signaling pathway in HUVEC; assay: Western blot of VEGF-induced VEGFR2 phosphorylation and downstream signalling in HUVEC; format: cell-based, human; settings: concentration-dependent
Procedure: Figure 2 Effects of YLT192 on HUVECs proliferation, migration, invasion and tube formation. […] Cells were wounded by the pipette and then treated with various concentrations of compounds for 24 hours. Migrated cells were quantified by manual counting (50×). […] The bottom chambers of the transwells were filled with 600 μL EGM2 containing various growth factors while the top chambers were seeded with 4 × 10^4 HUVECs in EBM2 and treated with different concentrations of compounds for 24 hours. Cells invaded through the membrane were stained and quantified (100×). […] HUVECs were seeded on Matrigel layer and treated with different concentrations of compounds. HUVECs tube formation was assessed 6 hours later (50×). One representative experiment of three is shown. For (A), (B) and (C), data represent the mean ± SEM of three different experiments. Each experiment was performed in duplicate.*P < 0.05, **P < 0.01. (D) YLT192 inhibited VEGF-induced phosphorylation of VEGFR2 and its downstream signal regulator p44/42 MAPK, STAT3 and AKT in HUVECs. One representative Western blot of three is presented. Each has the expression of β-actin as internal control. The full size blots were shown in the Supplemental Figure S5 online. (E) Cellular thermal shift assay showing VEGFR2 target engagement by YLT192 in intact HUVECs. One representative Western blot of two is presented. […]

HUVEC = assay: Capillary-like tube formation assay; format: cell-based, human; settings: designed concentrations; 6 hours; Matrigel
Procedure: To elucidate the possible mechanisms of angiogenesis inhibition, tube formation ability of ECs, which is a critical step in the process of angiogenesis, was assessed in HUVEC in vitro.
The anti-angiogenesis ability of YLT192 in vitro was evaluated using capillary tube formation assay as described previously. Briefly, 96-well plate was pre-incubated with Matrigel at 37°C for 45 minutes. Then HUVECs (2 × 10^4 cells) suspended in EGM2 medium were seeded onto the Matrigel. They were treated with various concentrations of YLT192. After 6 hours incubation at 37°C, tube formation was assessed with an OLYMPUS inverted digital camera in low power fields (50×). Vandetanib served as positive control. The assay was replicated 3 times.

HCT116 cells [2] = assay: Western blot of oncogenic signaling pathways; format: cell-based, human; settings: 48 h
Procedure: (§1) Figure 4 Inhibitory effects of YLT192 on tumor cells. (A) YLT192 inhibited U251 and HCT116 cells proliferation. The EdU incorporation assay was conducted on U251 and HCT116 cells after treated with YLT192 for 24 hours. The EdU-positive (red fluorescent staining) cells and Hoechst staining (blue fluorescent staining) cells represented proliferating and total cells in the fluorescent images, respectively (100×). Quantification was shown on the right panels. (B) YLT192 induced apoptosis of HCT116 cells. HCT116 cells were treated with YLT192 or vehicle for 48 hours followed by flow cytometric analysis of annexin V-FITC and PI staining. […] Typical apoptosis-related proteins caspase 3 and Bax were detected by western blot. […] U251 and HCT116 cells were treated with YLT192 or vehicle for 48 hours and the expression of protein in different signaling pathways were detected by western blot with specific antibodies. […]
(§2) To gain further insight into the molecular mechanism of the inhibitory effects of YLT192 on tumor cells we evaluated the expression of p44/42 MAPK, STAT3, AKT, and mammalian target of rapamycin (mTOR) in U251 and HCT116 cells 48 h after treatment.
(§3) Supplementary Figure S8. […] U251 and HCT116 cells were treated with YLT192 or vehicle for 48 hours and the expression of protein in different signaling pathways were detected by western blot with specific antibodies. […]

U251 cells [3] = assay: Western blot of oncogenic signaling pathways; format: cell-based, human; settings: 48 h
Procedure: as §1, §2, §3

HCT116 cells [4] = assay: EdU incorporation assay; format: cell-based, human; settings: 24 h treatment, concentration-dependent
Procedure: (§4) The proliferative inhibitory ability of YLT192 on tumor cells was investigated. […] Inhibition of cell proliferation is a possible approach for cancer treatment. EdU incorporation assay was performed to investigate the anti-proliferative effects of YLT192 against U251 and HCT116 cells.
(§5) Figure 4 Inhibitory effects of YLT192 on tumor cells. (A) YLT192 inhibited U251 and HCT116 cells proliferation. The EdU incorporation assay was conducted on U251 and HCT116 cells after treated with YLT192 for 24 hours. The EdU-positive (red fluorescent staining) cells and Hoechst staining (blue fluorescent staining) cells represented proliferating and total cells in the fluorescent images, respectively (100×). Quantification was shown on the right panels. (B) YLT192 induced apoptosis of HCT116 cells. HCT116 cells were treated with YLT192 or vehicle for 48 hours followed by flow cytometric analysis of annexin V-FITC and PI staining. The proportion of early apoptotic cells (annexin V positive) and late apoptotic cells (annexin V and PI positive cells) were shown. Typical apoptosis-related proteins caspase 3 and Bax were detected by western blot. Each has the expression of β-actin as internal control. […] U251 and HCT116 cells were treated with YLT192 or vehicle for 48 hours and the expression of protein in different signaling pathways were detected by western blot with specific antibodies. […]

U251 cells [5] = assay: EdU incorporation assay; format: cell-based, human; settings: 24 h treatment, concentration-dependent
Procedure: as §4, §5

HCT116 = assay: Inhibition of tumor cell growth; format: cell-based; settings: HCT-116; HCT116, human colorectal carcinoma; 48 hour treatment; means ± SD, n=3
Excerpt: Data are means ± SD, n=3.
cell line cell type IC50(μM)

## CNC(=O)c1cc(Oc2ccc(NC(=O)c3cccc(OC)c3)cc2)ccn1 [YLT192]
[1]
  VEGF-stimulated phosphorylation of VEGFR2 and downstream p44/42 MAPK, AKT, and STAT3: clearly reduced
HUVEC
  tube formation of HUVEC: strongly inhibited
HCT116 cells [2]
  expression of phosphorylated p44/42 MAPK, STAT3, AKT, and mTOR: dramatically decreased
U251 cells [3]
  expression of phosphorylated p44/42 MAPK, STAT3, AKT, and mTOR: dramatically decreased
HCT116 cells [4]
  percentage of proliferating cells, EdU incorporation: decreased a lot
U251 cells [5]
  percentage of proliferating cells, EdU incorporation: decreased a lot
HCT116
  IC50: 7.4 ± 0.5 µM
